The source of these data is patent US20140051730A1, “THERAPEUTIC USE OF DIMIRACETAM TO PREVENT THE HAND AND FOOT SYNDROME CAUSED BY SORAFENIB” (NEUROTUNE AG, priority 2010, published 2014).

Each structure is given as a SMILES string.

For data set [1], the system named is sorafenib induced allodynia. Description: Acute experiment: rat cold plate test, sorafenib allodynia. The note with it: for Acute antiallodynic efficacy on sorafenib induced allodynia (in words): single p.o. dose on day 14: dimiracetam 300, gabapentin 100, duloxetine 30 mg/kg, rat cold plate. The procedure: Male Sprague Dowley adult rats (200-220 g—aged 7 weeks) were used. Groups of 4 rats were housed in 26 by 41 cm cages that were placed in the experimental room 24 h before the test for acclimatization. The animals were fed a standard laboratory diet and tap water ad libitum and kept at 23±1° C. with a 12 h light/dark cycle, light on at 7 a.m. All experiments were carried out in accordance with the European Communities Council Directive of 24 Nov. 1986 (86/609/EEC) for experimental animal care. All efforts were made to minimize the number of animals used and their suffering.
Dimiracetam, duloxetine and gabapentin were dissolved in water. Drug concentrations were adjusted to a volume of 10 ml/kg for dosing by oral administration or i.p. injection. Sorafenib was dissolved in a vehicle composed by 1% ethanol+1% Cremophor+98% saline for i.p. injection.
Control rats were treated with an equal volume of the sorafenib vehicle. Sorafenib was administered once daily for 14 consecutive days. Dimiracetam, gabapentin and duloxetine were administered once daily on day 14 after sorafenib treatment.
Rats were placed inside a stainless steel container, thermostatically set at 4° C. in a precision water-bath from KW Mechanical Workshop, Siena, Italy. Reaction times (in seconds) were measured with a stop-watch before and at regular intervals; the endpoint used was the licking of the fore or hind paws. An arbitrary cut-off time of 60 s was adopted (see Beyreuther et al., Eur. J. Pharmacol. 565, 98-104, 2007).
All experimental results are given as the mean±S.E.M. An analysis of variance, ANOVA, followed by Fisher's protected least significant difference procedure for post hoc comparison, was used to verify significance between two means of behavioral results. Data were analyzed with the StatView software for the Macintosh (1992). P values≦0.05 were considered significant.

The test system of data set [2] is sorafenib induced allodynia. Description: Chronic experiment: rat cold plate test, sorafenib induced allodynia. The class given is in vivo. Particulars: for Licking latency, Before all Treatments: baseline, mean of 8 rats. The procedure:
1986 (86/609/EEC) for experimental animal care.
Dimiracetam, duloxetine and gabapentin were dissolved in water.
Sorafenib was dissolved in a vehicle constituted by 1% ethanol+1% Cremophor+[…]. Sorafenib was administered once daily for 14 days. Dimiracetam was administered by oral gavage twice daily for 14 days (co-administered with sorafenib).
P values≦0.05 were considered significant.

Data set [3] can be described thus: Blood levels in healthy volunteers during Phase I studies. The class given is in vivo. Particulars: 1600 bid dose (3200 mg daily). The procedure:
Blood levels were determined in healthy volunteers during Phase I studies.
The blood levels were determined for 1600 bid dose (i.e. 3200 mg daily).

Setting [4] is: 15 min after single p.o. dose (dimiracetam 300, gabapentin 100, duloxetine 30 mg/kg) on day 14 of sorafenib 10 mg/kg.
[5] abbreviates: 30 min after single p.o. dose (dimiracetam 300, gabapentin 100, duloxetine 30 mg/kg) on day 14 of sorafenib 10 mg/kg.
Setting [6] is: 60 min after single p.o. dose (dimiracetam 300, gabapentin 100, duloxetine 30 mg/kg) on day 14 of sorafenib 10 mg/kg.
Setting [7] is: baseline before all treatments, group later given test drug p.o. + sorafenib 10 mg/kg once daily 14 days, cold plate 4° C., mean ± S.E.M., 5 rats.
Where [8] appears, read: day 14 of sorafenib 10 mg/kg, before single p.o. dose of test drug, cold plate 4° C.

As to `O=C1CN2C(=O)CCC2N1` (centres unmarked) [DIMIRACETAM, 2,5-dioxohexahydro-1H-pyrrolo[1,2-a]imidazole], the “Licking latency, 14° day 15 min” value was determined as 19.8 ± 1.5 s in data set [1] (setting [4]) and 29.0 ± 1.9 s in data set [1] (vehicle i.p. (no sorafenib), 15 min after dimiracetam 300 mg/kg p.o.). Moreover, the “Licking latency, 14° day 30 min” value was found to be 16.0 ± 1.9 s in data set [1] (setting [5]) and 28.2 ± 2.3 s in data set [1] (vehicle i.p. (no sorafenib), 30 min after dimiracetam 300 mg/kg p.o.). The “Licking latency, 14° day 60 min” value was determined as 15.4 ± 1.4 s in data set [1] (setting [6]) and 27.2 ± 3.0 s in data set [1] (vehicle i.p. (no sorafenib), 60 min after dimiracetam 300 mg/kg p.o.). Moreover, the “Licking latency, Pre test before all treatments” value in data set [1] (setting [7]) turned out to be 26.8 ± 3.0 s; in data set [1] (baseline, group given sorafenib vehicle i.p. + dimiracetam 300 mg/kg p.o. (no sorafenib)), 27.2 ± 2.8 s. Also, the “Licking latency, 14° day Pre test” value in data set [1] (setting [8]) was 15.8 ± 1.8 s; in data set [1] (vehicle i.p. 14 days (no sorafenib), before dimiracetam 300 mg/kg p.o.) it was 28.4 ± 2.1 s. Further, in data set [1], the “Acute antiallodynic efficacy on sorafenib induced allodynia (in words)” value (shortened to “Acute antiallodynic efficacy”) is given as “statistically significant effect on sorafenib induced allodynia 15 min after administration”. The “Licking latency, Before all Treatments” value in data set [2] (group given dimiracetam 150 mg/kg p.o. b.i.d. + sorafenib 10 mg/kg i.p. once daily 14 days) is recorded as 27.3 ± 1.1 s. In addition, the “Licking latency, After 14 days of treatment, 1 h” value in data set [2] (dimiracetam 150 mg/kg p.o. b.i.d. + sorafenib 10 mg/kg i.p. 14 days, 1 h after end of treatment) is listed as 23.8 ± 1.1 s. Also, the “Licking latency, After 14 days of treatment, 4 h” value in data set [2] (dimiracetam 150 mg/kg p.o. b.i.d. + sorafenib 10 mg/kg i.p. 14 days, 4 h after end of treatment) stood at 23.3 ± 1.1 s. Also, the “Licking latency, After 14 days of treatment, 8 h” value in data set [2] (dimiracetam 150 mg/kg p.o. b.i.d. + sorafenib 10 mg/kg i.p. 14 days, 8 h after end of treatment) is recorded as 22.8 ± 1.2 s. In addition, the “Licking latency, After 14 days of treatment, 24 h” value in data set [2] (dimiracetam 150 mg/kg p.o. b.i.d. + sorafenib 10 mg/kg i.p. 14 days, 24 h after end of treatment) is 21.9 ± 1.1 s. The “Licking latency, After 14 days of treatment, 48 h” value in data set [2] (dimiracetam 150 mg/kg p.o. b.i.d. + sorafenib 10 mg/kg i.p. 14 days, 48 h after end of treatment) is 19.0 ± 0.6 ^ s. For the same compound, the “Licking latency, After 14 days of treatment, 72 h” value in data set [2] (dimiracetam 150 mg/kg p.o. b.i.d. + sorafenib 10 mg/kg i.p. 14 days, 72 h after end of treatment) stood at 14.9 ± 0.6 s. The “Licking latency, After 14 days of treatment, Pretest” value in data set [2] (dimiracetam 150 mg/kg p.o. b.i.d. + sorafenib 10 mg/kg i.p. 14 days, before last administration) came to 24.3 ± 0.8 s. Also, the “Duration of statistically significant antiallodynic effect after end of treatment” value in data set [2] (dimiracetam 150 mg/kg p.o. b.i.d. for 14 consecutive days with sorafenib) is “up to 48 h”. In addition, in data set [2] (dimiracetam 150 mg/kg p.o. b.i.d. for 14 consecutive days, evaluated on day 14), the “Chronic antiallodynic effect (in words)” value is listed as “statistically significant antiallodynic effect”. Also, the “Development of tolerance (in words)” value in data set [2] (general statement, no data given) was “not to develop tolerance”. Further, the “Blood level, mean minimal level over 24 hours (Cmin)” value in data set [3] was determined as 136 µM. In data set [3] (human, blood, read-out: Blood level, mean maximal level over 24 hours (Cmax)), the highest concentration (Cmax) (usually the peak of the concentration-time curve) was determined as 536 µM.
Take `CNCC[C@H](Oc1cccc2ccccc12)c1cccs1` [DULOXETINE, duloxetine]: the “Licking latency, 14° day 15 min” value in data set [1] (setting [4]) was found to be 14.2 ± 1.6 s. In addition, the “Licking latency, 14° day 30 min” value in data set [1] (setting [5]) turned out to be 14.6 ± 1.5 s. Further, the “Licking latency, 14° day 60 min” value in data set [1] (setting [6]) is 13.4 ± 1.7 s. In addition, the “Licking latency, Pre test before all treatments” value in data set [1] (setting [7]) stood at 27.8 ± 1.7 s. The “Licking latency, 14° day Pre test” value in data set [1] (setting [8]) was 13.2 ± 1.2 s. Moreover, the “Acute antiallodynic efficacy” value in data set [1] was “no significant effect”.
For the compound `NCC1(CC(=O)O)CCCCC1` [GABAPENTIN, gabapentin], the “Licking latency, 14° day 15 min” value in data set [1] (setting [4]) is 13.2 ± 1.8 s. Also, the “Licking latency, 14° day 30 min” value in data set [1] (setting [5]) is 13.6 ± 1.2 s. Besides, the “Licking latency, 14° day 60 min” value in data set [1] (setting [6]) was 13.8 ± 1.8 s. In data set [1] (setting [7]), the “Licking latency, Pre test before all treatments” value came out at 26.8 ± 2.3 s. Moreover, the “Licking latency, 14° day Pre test” value in data set [1] (setting [8]) was found to be 15.4 ± 2.0 s. Also, the “Acute antiallodynic efficacy” value in data set [1] is reported as “no significant effect”.
Take `CNC(=O)c1cc(Oc2ccc(NC(=O)Nc3ccc(Cl)c(C(F)(F)F)c3)cc2)ccn1` [SORAFENIB, sorafenib]: the “Licking latency, Pre test before all treatments” value in data set [1] (baseline, group given sorafenib 10 mg/kg i.p. + water p.o.) is 28.6 ± 2.1 s. In addition, in data set [1] (sorafenib 10 mg/kg i.p. once daily 14 days, 15 min after water p.o.), the “Licking latency, 14° day 15 min” value was 14.0 ± 1.8 s. Besides, the “Licking latency, 14° day 30 min” value in data set [1] (sorafenib 10 mg/kg i.p. once daily 14 days, 30 min after water p.o.) stood at 13.6 ± 1.8 s. The “Licking latency, 14° day 60 min” value in data set [1] (sorafenib 10 mg/kg i.p. once daily 14 days, 60 min after water p.o.) was 14.4 ± 2.3 s. In addition, the “Licking latency, 14° day Pre test” value in data set [1] (sorafenib 10 mg/kg i.p. once daily 14 days, before water p.o.) came to 13.8 ± 2.0 s. In data set [1] (sorafenib 10 mg/kg i.p. once daily in rats, cold plate, day 14), the “Induction of allodynia by sorafenib (in words)” value is on record as “induced an allodynic responses to thermal stimuli”. The “Licking latency, Before all Treatments” value in data set [2] (group given water + sorafenib 10 mg/kg i.p. once daily 14 days) is reported as 26.9 ± 1.4 s. For the same compound, the “Licking latency, After 14 days of treatment, Pretest” value in data set [2] (water + sorafenib 10 mg/kg i.p. once daily 14 days) amounted to 14.8 ± 1.3 s. For the same compound, the “Licking latency, After 14 days of treatment, 1 h” value in data set [2] (water + sorafenib 10 mg/kg i.p. once daily 14 days, 1 h) is reported as 14.3 ± 1.4 s. In addition, in data set [2] (water + sorafenib 10 mg/kg i.p. once daily 14 days, 4 h), the “Licking latency, After 14 days of treatment, 4 h” value is 15.1 ± 1.5 s. Also, the “Licking latency, After 14 days of treatment, 8 h” value in data set [2] (water + sorafenib 10 mg/kg i.p. once daily 14 days, 8 h) turned out to be 16.0 ± 1.1 s. Also, the “Licking latency, After 14 days of treatment, 24 h” value in data set [2] (water + sorafenib 10 mg/kg i.p. once daily 14 days, 24 h) turned out to be 14.0 ± 1.1 s. For the same compound, the “Licking latency, After 14 days of treatment, 48 h” value in data set [2] (water + sorafenib 10 mg/kg i.p. once daily 14 days, 48 h) was 14.3 ± 1.2 s. Moreover, in data set [2] (water + sorafenib 10 mg/kg i.p. once daily 14 days, 72 h), the “Licking latency, After 14 days of treatment, 72 h” value is 15.0 ± 1.0 s.
